Experimental findings from patent EP2487171A1, “Dihydrobenzopyran, thiochroman, tetrahydroquinoleine and tetrahydronaphthalene derivatives and their use in anti-cancer therapy” (Université de Liège, priority 2011, dated 2012) are described below.

Experiment [1] deals with Astrocytes - Mouse normal brain cells. Briefly: MTT colorimetric assay on normal astrocytes (bioselectivity). The format is cell-based. The protocol:
(§1) Table 2: Bioselectivity determined by dividing the IC50 obtained with glioma cell lines by the IC50 obtained with normal astrocytes. Bioselectivity was determined only for those compounds whose mean + SEM values on the three human glioma cell lines were ≤ 20 µM.
Background: Formazan colour is commonly taken as a measure of viable cells.

The test system of another experiment is U373. Briefly: MTT colorimetric assay, overall cell growth. Type of experiment: cell-based. Particulars: Homo sapiens, U373 MG; U373 cells, 72 hours of incubation; read-out: IC50 (µM) In Vitro Growth Inhibitory Concentrations (MTT Colorimetric Assay) U373.
The next experiment deals with T98G. Briefly: MTT colorimetric assay, overall cell growth. Particulars: Homo sapiens, 72 h, read-out: IC50 (µM) In Vitro Growth Inhibitory Concentrations (MTT Colorimetric Assay) T98G.
The test system of experiment [2] is human U373 glioma cell line. Briefly: Quantitative videomicroscopy (computer-assisted phase-contrast microscopy). The format is cell-based. The note with it: U373 cells treated at the IC50 concentration from MTT, filmed for 72h; cytostatic versus cytotoxic effects. The source says:
In addition, the inventors could establish that the compounds of the invention act through a non-apoptosis-related mechanism thanks to a unique experimental approach used by the inventors, i.e. computer-assisted phase-contrast microscopy (quantitative videomicroscopy), making them good candidates as anti-cancer drugs for treating apoptosis-resistant tumor or cancer cells and for overcoming problems linked to the known anti-cancer drugs.
As the MTT test is based on the mitochondria functions, we also investigated the effects of the compounds according to the invention on cell proliferation, migration and morphology by means of a cellular imaging approach (Debeir et al., Cytometry 60:29-40, 2004; Debeir et al., IEEE Trans Med Imaging 24:697-711, 2005) in the human U373 glioma cell line, which is apoptosis-resistant but autophagy-sensitive (Lefranc F et al., Neurosurgery 2008).
Cellular imaging relied on the use of computer-assisted phase-contrast microscopy making possible to film the behaviour of living cells in culture dishes for several days.
Cells were seeded in a 25-cm^2 flask at a low density, treated or not with the compounds of the invention (at their IC50 concentration determined previously by MTT tests) and filmed thereafter for a period of 72h. The experiment was conducted in triplicate.
The behaviour of the cells, in terms of morphology, growth and death were thus investigated. The effect on the overall growth was measured by counting the number of cells on the first (0h) and the last image (72h) of each film. The global growth ratio (GGR) was then deduced by dividing the number of cells on the last image by the number of cells on the first image. The ratio GGRtreated cells / GGRcontrol cells, was further calculated thereby obtaining a value that describes the effect of compounds of the present invention on the overall cell growth.
The methodology is fully described and validated in Debeir et al., 2008, Exp Cell Res 314:2985-2998 and Mathieu et al., 2009, J Cell Mol Med, Feb 20, 2009.
Thanks to the quantitative videomicroscopy (QVM) approach, we classified the compounds into 4 distinctive classes on the basis of their cytostatic versus cytotoxic effects (Table 3). • Class I: actually cytostatic for 3 days (< 10 % of cell death at the 3rd day) • Class II: cytostatic but becomes cytotoxic with < 10% cell death on the 2nd day and > 20% of cell death on the 3rd day • Class III: cytostatic but rapidly becomes cytotoxic with < 10% cell death on the 1st day, > 20% of cell death on the 2nd day and > 50% of cell death on the 3rd day • Class IV: cytotoxic (> 50% of cell death on the first day)
In Fig. 1a, compounds of example 14 (5 µM), example 19 (20 µM) and example 23 (5 µM) belong to QVM Class I because they display cytostatic effects on human U373 GBM cells during the whole duration of the experiment. Cytostatic effects mean that < 10 % of cell death was recorded at the end of the experiment, i.e. at the end of the 3rd day. QVM analyses enable the global growth ratio (GGR) to be calculated in each experiment. The GGR index is obtained by dividing the number of cells in the last image by the number of cells in the first image of the experiment, knowing that 1080 images are taken during the 72 h-period of observation. The ratio GGR^treated cells / GGR^control cells was further calculated thereby obtaining a value that describes the effect of compounds on the overall cell growth. Thus, a GGR index of 0.2 means that they remain only 20% of treated cells compare to the control cells at the end of the experiment.

In another experiment the test system is Hs683. Briefly: MTT colorimetric assay, overall cell growth. Type of experiment: cell-based. Particulars: Homo sapiens, Hs 683; Hs683 cells, 72 hours of incubation; read-out: IC50 (µM) In Vitro Growth Inhibitory Concentrations (MTT Colorimetric Assay) Hs683.
In experiment [3] the test system is three Human Glioma Cell Lines. Briefly: MTT colorimetric assay, mean over the three glioma cell lines. The format is cell-based. Particulars: mean of the three human glioma cell lines, 72h (Table 2); read-out: Mean IC50 MTT values ± SEM (µM) Glioma - Human Brain cancer cells (I - 72h). The protocol:
as §1

Experiment [4] deals with Astrocytes - Mouse normal brain cells. Briefly: MTT colorimetric assay on normal astrocytes (bioselectivity). Type of experiment: cell-based. Particulars: Astrocyte, primocultures of astrocytes from newborn mice, 72h, read-out: Mean IC50 MTT values ± SEM (µM) Astrocytes - Mouse normal brain cells (II - 72h).

Procedure for Hs683: The compounds and particularly dihydrobenzopyran, thiochroman, tetrahydroquinoleine and tetrahydronaphthalene derivatives of the invention were evaluated for their anti-proliferative effect (by means of the colorimetric MTT assay), in the following human glioblastoma cell-lines U373, T98G and Hs683 and in the mouse glioma cell line GL261. Normal brain cells (primocultures from newborn mice) were also used in order to determine the bioselectivity (B^N/C) of the compounds of interest, i.e. the ratio between the concentrations that inhibits 50% of the growth of brain cancer (C) cells (glioma cells) and the concentration that inhibits 50% of the growth of normal (N) brain cells (primocultures of astrocytes). The ideal situation to be reached is a bioselectivity of B^N/C > 10.
(§2) MTT tests were performed in order to rapidly, i.e. within 5 days, measure the effect of compounds of this invention on the overall cell growth. The test measured the number of metabolically active living cells that were able to transform the yellow product 3-(4,5-dimethylthiazol-2-yl)-2,5-diphenyl tetrazolium bromide (herein referred as MTT) into the blue product formazan dye by mitochondrial reduction. The amount of formazan obtained at the end of the experiment, measured by means of a spectrophotometer, is directly proportional to the number of living cells. Optical density determination thus enabled a quantitative measurement of the effect of the investigated compounds as compared to the control condition (untreated cells) and/or to other reference compounds.
(§3) Three human cancer cell lines were used in the following MTT tests.
(§4) To perform the assay, cells were allowed to grow in 96-well micro-wells with a flat bottom with an amount of 100 µl of cell suspension per well with 1,000 to 8,000 cells/well depending on the cell type used. Each cell line was seeded in its appropriate culture medium.
(§5) The detailed experimental procedure was the following: after a 24-hour period of incubation at 37°C, the culture medium was replaced by 100 µl of fresh medium in which the tested compound was previously dissolved, at the following molar concentrations: 10^-8 M, 5.10^-8 M, 10^-7 M, 5.10^-7 M, 10^-6 M, 5.10^-6 M, 10^-5 M, 5.10^-5 M and 10^-4 M. Each experiment was performed in sextuplicate (6 times).
After 72 hours of incubation at 37°C with (experimental conditions) or without (control condition) the compound to be tested, the medium was replaced by 100 µl MTT dissolved in RPMI (1640 without phenol red) at a concentration of 0.5 mg/ml. The micro-wells were subsequently incubated during 3 hours and a half at 37°C and centrifuged at 1300 rpm during 10 minutes. MTT was removed and formazan crystals formed were dissolved in 100 µl DMSO. The micro-wells were shaken for 5 minutes and read on a spectrophotometer at wavelengths of 570 nm (maximal formazan absorbance).
(§6) For each experimental condition, the mean optical density was calculated, allowing the determination of the percentage of remaining living cells in comparison to the control.
Procedure for T98G: The compounds and particularly dihydrobenzopyran, thiochroman, tetrahydroquinoleine and tetrahydronaphthalene derivatives of the invention were evaluated for their anti-proliferative effect (by means of the colorimetric MTT assay), in the following human glioblastoma cell-lines U373, T98G and Hs683 and in the mouse glioma cell line GL261. Normal brain cells (primocultures from newborn mice) were also used in order to determine the bioselectivity (B^N/C) of the compounds of interest, i.e. the ratio between the concentrations that inhibits 50% of the growth of brain cancer (C) cells (glioma cells) and the concentration that inhibits 50% of the growth of normal (N) brain cells (primocultures of astrocytes).
as §2, §3, §4, §5
The micro-wells were subsequently incubated during 3 hours and a half at 37°C and centrifuged at 1300 rpm during 10 minutes. MTT was removed and formazan crystals formed were dissolved in 100 µl DMSO. The micro-wells were shaken for 5 minutes and read on a spectrophotometer at wavelengths of 570 nm (maximal formazan absorbance).
as §6

In the case of `CC(C)(C)OC(=O)Nc1ccc2c(c1)C(NC(=O)Nc1cccc(C#N)c1)CC(C)(C)O2` (racemic) [Example 14, R/S-N-3-cyanophenyl-N'-(6-tert-butoxycarbonylamino-3,4-dihydro-2,2-dimethyl-2H-1-benzopyran-4-yl)urea], in experiment [1], the “Bioselectivity (I / II)” value was above 10. Also, the IC50 with U373 was 2 µM; in the experiment on T98G, 3 µM; with Hs683 it was 2 µM; in experiment [3], 2 ± 1 µM; in experiment [4] it was above 20 µM. Moreover, the “QVM Class” value in experiment [2] was “I (Class I: actually cytostatic for 3 days (< 10 % of cell death at the 3rd day))”.

With `CC(C)(C)OC(=O)Nc1ccc2c(c1)C(NC(=O)Nc1ccc(C#N)cc1)CC(C)(C)O2` (racemic) [Example 15, R/S-N-4-cyanophenyl-N'-(6-tert-butoxycarbonylamino-3,4-dihydro-2,2-dimethyl-2H-1-benzopyran-4-yl)urea], in experiment [1], the “Bioselectivity (I / II)” value is above 10. Also, the IC50 in the experiment with U373 is 10 µM; in the experiment with T98G it was 26 µM; in the experiment on Hs683, 18 µM; in experiment [3], 18 ± 5 µM; in experiment [4], above 200 µM. Also, in experiment [2], the “QVM Class” value was “I (Class I: actually cytostatic for 3 days (< 10 % of cell death at the 3rd day))”.

For `CC(C)(C)OC(=O)Nc1ccc2c(c1)C(NC(=O)Nc1cccc(Cl)c1)CC(C)(C)O2` (racemic) [Example 16, R/S-N-3-chlorophenyl-N'-(6-tert-butoxycarbonylamino-3,4-dihydro-2,2-dimethyl-2H-1-benzopyran-4-yl)urea], the “Bioselectivity (I / II)” value in experiment [1] is listed as above 12. Moreover, the IC50 in the experiment with U373 was 18 µM; in the experiment on T98G, 20 µM; with Hs683, 12 µM; in experiment [3] it was 17 ± 3 µM; in experiment [4], above 200 µM. In addition, the “QVM Class” value in experiment [2] is “III (Class III: cytostatic but rapidly becomes cytotoxic with < 10% cell death on the 1st day, > 20% of cell death on the 2nd day and > 50% of cell death on the 3rd day)”.

For the molecule `CC(C)(C)OC(=O)Nc1ccc2c(c1)C(NC(=O)Nc1cc(F)cc(F)c1)CC(C)(C)O2` (racemic) [Example 21, R/S-N-3,5-difluorophenyl-N'-(6-tert-butoxycarbonylamino-3,4-dihydro-2,2-dimethyl-2H-1-benzopyran-4-yl)urea], the “Bioselectivity (I / II)” value in experiment [1] was “∼ 5”. Moreover, the IC50 in the experiment with U373 was 6 µM; in the experiment on T98G, 14 µM; in the experiment on Hs683, 7 µM; in experiment [3] it was 9 ± 3 µM; in experiment [4], around 45 µM. Also, the “QVM Class” value in experiment [2] is “I (Class I: actually cytostatic for 3 days (< 10 % of cell death at the 3rd day))”.

Turning to `CC(C)(C)OC(=O)Nc1ccc2c(c1)C(NC(=O)Nc1cccc([N+](=O)[O-])c1)CC(C)(C)O2` (racemic) [Example 23, R/S-N-3-nitrophenyl-N'-(6-tert-butoxycarbonylamino-3,4-dihydro-2,2-dimethyl-2H-1-benzopyran-4-yl)urea], in experiment [1], the “Bioselectivity (I / II)” value is on record as below 5. In addition, the IC50 with U373 is 1 µM; in the experiment with T98G, 7 µM; in the experiment on Hs683 it was 16 µM; in experiment [3] it was 8 ± 4 µM; in experiment [4], below 40 µM. Further, the “QVM Class” value in experiment [2] is “I (Class I: actually cytostatic for 3 days (< 10 % of cell death at the 3rd day))”.

Regarding `CC(C)(C)OC(=O)Nc1ccc2c(c1)C(NC(=O)Nc1ccc(C(F)(F)F)cc1)CC(C)(C)O2` (racemic) [Example 24, R/S-N-4-trifluoromethylphenyl-N'-(6-tert-butoxycarbonylamino-3,4-dihydro-2,2-dimethyl-2H-1-benzopyran-4-yl)urea], the “Bioselectivity (I / II)” value in experiment [1] is reported as above 10. In addition, the IC50 is 10 µM in the experiment with U373; 15 µM in the experiment with T98G; 11 µM in the experiment with Hs683; 12 ± 1 µM in experiment [3]; above 120 µM in experiment [4]. In addition, the “QVM Class” value in experiment [2] is “I (Class I: actually cytostatic for 3 days (< 10 % of cell death at the 3rd day))”.
